Structures can show the parent of a compound that is named as a salt.

Stromelysin, sequence (P08254 100-477): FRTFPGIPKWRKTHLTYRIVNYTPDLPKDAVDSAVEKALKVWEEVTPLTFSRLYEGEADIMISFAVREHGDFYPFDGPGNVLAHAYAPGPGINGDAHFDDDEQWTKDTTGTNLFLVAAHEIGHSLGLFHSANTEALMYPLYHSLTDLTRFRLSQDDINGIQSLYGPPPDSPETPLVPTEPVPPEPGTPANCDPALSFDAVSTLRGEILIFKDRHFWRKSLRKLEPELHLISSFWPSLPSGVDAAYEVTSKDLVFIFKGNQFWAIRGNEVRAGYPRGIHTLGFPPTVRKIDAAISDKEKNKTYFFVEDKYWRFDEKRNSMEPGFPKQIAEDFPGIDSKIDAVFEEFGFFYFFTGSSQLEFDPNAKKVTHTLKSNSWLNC

The test addresses Stromelysin (Homo sapiens, UniProt P08254). Briefly: MMP inhibition, particle concentration fluorescence assay. As to conditions: in vitro; fluorescein/biotin substrate; MMP buffer pH 7.5; room temperature. The test is classed as biochemical.
Protocol: Inhibitory activity is evaluated in one or more of the MMP enzymes (stromelysin, gelatinase, and collagenase) in vitro using particle concentration fluorescence assay. An inhibitor binds to MMP enzymes which prevents the degradation of a substrate by stromelysin, gelatinase, or collagenase. The substrate has attached to it a fluorescein and a biotin moiety. The intact substrate then binds to an avidin-coated particle via the biotin moiety. Once the particle is washed and dried, a fluorescent signal is generated since the fluorescent group is attached to the particle. Without an inhibitor present, the substrate is degraded by MMP enzymes and the fluorescein group is removed, therefore, no fluorescent signal can be detected. Testing compounds are dissolved in DMSO to the desired concentration, then the solutions are diluted to 1:5 with MMP buffer (50 mM Tris-HCl, pH 7.5; 150 mM NaCl; 0.02% NaN3). Serial two-fold dilutions of each compound are prepared. A concentrated, activated enzyme solution is transferred into each plate of the testing compounds, and the mixture is incubated at room temperature for 15 minutes. […] At this point, the substrate mixture is mixed with 0.1% avidin-coated polystyrene particles. After 15 minutes, the fluorescence values are measured following filtration and washing of the beads. Ki values are then calculated.
Regarding `O=C(Nc1n[nH]c(=S)s1)N[C@@H](Cc1ccccc1)C(=O)NCCc1ccccc1` [Example 6, α-[[[(4,5-Dihydro-5-thioxo-1,3,4-thiadiazol-2-yl)amino]carbonyl]-amino]-N-(2-phenylethyl)-(S)-benzenepropanamide], the inhibitory constant (Ki) (as a rule, a dissociation constant, usually derived from enzyme kinetics or from competition with a known ligand) worked out at 300 nM.
As for `O=C(Nc1n[nH]c(=S)s1)N[C@@H](Cc1ccccc1)C(=O)NCc1ccccn1` [Example 7, α-[[[(4,5-Dihydro-5-thioxo-1,3,4-thiadiazol-2-yl)amino]carbonyl]-amino]-N-(2-pyridinylmethyl)-(S)-benzenepropanamide], the affinity, expressed as Ki, was 1100 nM.
Regarding `CNC(=O)[C@H](Cc1c[nH]c2ccccc12)NC(=O)Nc1n[nH]c(=S)s1` [Example 13, α-[[[(4,5-Dihydro-5-thioxo-1,3,4-thiadiazol-2-yl)amino]carbonyl]-amino]-N-methyl-(S)-1H-indole-3-propanamide], the affinity, expressed as Ki, was 2500 nM.
With `O=C(Nc1n[nH]c(=S)s1)N[C@@H](Cc1ccccc1)C(=O)NCc1ccncc1` [Example 17, α-[[[(4,5-Dihydro-5-thioxo-1,3,4-thiadiazol-2-yl)amino]-carbonyl]amino]-N-(4-pyridinylmethyl)-(S)-benzenepropanamide] the figure was 1270 nM.
The same measure for `O=C(Nc1n[nH]c(=S)s1)N[C@@H](Cc1ccccc1)C(=O)NCc1cccnc1` [Example 18, α-[[[(4,5-Dihydro-5-thioxo-1,3,4-thiadiazol-2-yl)amino]carbonyl]-amino]-N-(3-pyridinylmethyl)-(S)-benzenepropanamide]: 2010 nM.
With `O=C(Nc1n[nH]c(=S)s1)N[C@@H](Cc1ccccc1)C(=O)NCCN1CCOCC1` [Example 19, α-[[[(4,5-Dihydro-5-thioxo-1,3,4-thiadiazol-2-yl)amino]carbonyl]-amino]-N-[2-(4-morpholinyl)ethyl]-(S)-benzenepropanamide] the figure was 1990 nM; with `CNC(=O)C(Cc1ccc(Br)cc1)NC(=O)Nc1n[nH]c(=S)s1` (stereo not drawn) [Example 20, α-[[[(4,5-Dihydro-5-thioxo-1,3,4-thiadiazol-2-yl)amino]carbonyl]-amino]-N-methyl-4-bromobenzene-propanamide], 800 nM; with `COC(=O)[C@@H](NC(=O)Nc1n[nH]c(=S)s1)c1ccccc1` [Example 24, (S)-N-[[(4,5-Dihydro-5-thioxo-1,3,4-thiadiazol-2-yl)amino]carbonyl]-2-phenylglycine methyl ester], 7660 nM.
`CC(C)C[C@H](NC(=O)Nc1n[nH]c(=S)s1)C(=O)NCCc1ccccc1` [Example 28, 2-[[[(4,5-Dihydro-5-thioxo-1,3,4-thiadiazol-2-yl)amino]-carbonyl]amino]-4-methyl-N-(2-phenylethyl)-(S)-pentanamide] yielded a Ki of 3490 nM.
With `CC(C)C[C@H](NC(=O)Nc1n[nH]c(=S)s1)C(=O)NCc1ccccc1` [Example 29, 2-[[[(4,5-Dihydro-5-thioxo-1,3,4-thiadiazol-2-yl)amino]carbonyl]amino]-4-methyl-N-(phenylmethyl)-(S)-pentanamide] the figure was 4420 nM; with `COC(=O)[C@H](Cc1ccc(OC)cc1)NC(=O)Nc1n[nH]c(=S)s1` [Example 30, N-[[(4,5-Dihydro-5-thioxo-1,3,4-thiadiazol-2-yl)amino]carbonyl]-O-methyl-L-tyrosine methyl ester], 2750 nM.
With `COC(=O)[C@H](Cc1ccc([N+](=O)[O-])cc1)NC(=O)Nc1n[nH]c(=S)s1` [Example 32, N-[[(4,5-Dihydro-5-thioxo-1,3,4-thiadiazol-2-yl)amino]carbonyl]-L-(4-nitrophenyl)alanine methyl ester] the figure was 1870 nM; with `O=C(Nc1n[nH]c(=S)s1)N[C@@H](Cc1ccc([N+](=O)[O-])cc1)C(=O)NCCc1ccccc1` [Example 34, α-[[[(4,5-Dihydro-5-thioxo-1,3,4-thiadiazol-2-yl)amino]carbonyl]amino]-4-nitro-N-(2-phenylethyl)-(S)-benzenepropanamide], 210 nM.
With `CCCCNC(=O)[C@H](Cc1ccc([N+](=O)[O-])cc1)NC(=O)Nc1n[nH]c(=S)s1` [Example 35, N-Butyl-α-[[[(4,5-dihydro-5-thioxo-1,3,4-thiadiazol-2-yl)amino]carbonyl]amino]-4-nitro-(S)-benzenepropanamide] the figure was 350 nM; with `O=C(Nc1n[nH]c(=S)s1)N[C@@H](Cc1ccccc1)C(=O)NCCCCc1ccccc1` [Example 37, aα-[[[(4,5-Dihydro-5-thioxo-1,3,4-thiadiazol-2-yl)amino]carbonyl]amino]-N-(4-phenylbutyl)-(S)-benzenepropanamide], 820 nM; with `O=C(Nc1n[nH]c(=S)s1)N[C@@H](Cc1ccccc1)C(=O)NCCCO` [Example 41, α-[[[(4,5-Dihydro-5-thioxo-1,3,4-thiadiazol-2-yl)amino]-carbonyl]amino]-N-(3-hydroxypropyl)-(S)-benzenepropanamide], 1120 nM.
For `CCOC(=O)CCNC(=O)[C@H](Cc1ccccc1)NC(=O)Nc1n[nH]c(=S)s1` [Example 42, N-[[(4,5-Dihydro-5-thioxo-1,3,4-thiadiazol-2-yl)amino]carbonyl]-L-phenylalanyl-β-alanine ethyl ester], affinity was put at a Ki of 780 nM.
With `CNC(=O)CCNC(=O)[C@H](Cc1ccccc1)NC(=O)Nc1n[nH]c(=S)s1` [Example 43] the figure was 1340 nM; with `O=C(O)CCNC(=O)[C@H](Cc1ccccc1)NC(=O)Nc1n[nH]c(=S)s1` [Example 44], 1080 nM; with `COC(=O)[C@H](CO[Si](C)(C)C(C)(C)C)NC(=O)Nc1n[nH]c(=S)s1` [Example 45, N-[[(4,5-Dihydro-5-thioxo-1,3,4-thiadiazol-2-yl)amino]carbonyl]-O-[(1,1-dimethylethyl)dimethylsilyl]-L-serine methyl ester], 1530 nM.
The same measure for `CNC(=O)[C@H](CO[Si](C)(C)C(C)(C)C)NC(=O)Nc1n[nH]c(=S)s1` [Example 46, 2-[[[(4,5-Dihydro-5-thioxo-1,3,4-thiadiazol-2-yl)amino]carbonyl]amino]-3-[(1,1-dimethylethyl)-dimethylsilyloxy]-N-methyl-(S)-propanamide]: 750 nM.
Regarding `COC(=O)[C@H](Cc1ccc(O[Si](C)(C)C(C)(C)C)cc1)NC(=O)Nc1n[nH]c(=S)s1` [Example 47, N-[[(4,5-Dihydro-5-thioxo-1,3,4-thiadiazol-2-yl)amino]carbonyl]-O-[(1,1-dimethylethyl)dimethylsilyl]-L-tyrosine methyl ester], the inhibition constant Ki was determined as 6370 nM.
The same measure for `O=C(Nc1n[nH]c(=S)s1)N[C@@H](Cc1ccccc1)C(=O)NCc1ccc2c(c1)OCO2` [Example 49, α-[[[(4,5-Dihydro-5-thioxo-1,3,4-thiadiazol-2-yl)amino]-carbonyl]amino]-N-(piperonyl)-(S)-benzenepropanamide]: 1000 nM; for `O=C(Nc1n[nH]c(=S)s1)N[C@@H](Cc1ccccc1)C(=O)N1CCN(c2ccccc2)CC1` [Example 50, (S)-1-[2-[[[(4,5-Dihydro-5-thioxo-1,3,4-thiadiazol-2-yl)amino]carbonyl]amino]-1-oxo-3-phenylpropyl]-4-phenylpiperazine]: 1680 nM; for `O=C(Nc1n[nH]c(=S)s1)N[C@@H](Cc1ccccc1)C(=O)NCCCc1ccccc1` [Example 51, α-[[[(4,5-Dihydro-5-thioxo-1,3,4-thiadiazol-2-yl)amino]carbonyl]amino]-N-(3-phenylpropyl)-(S)-benzenepropanamide]: 1020 nM.
`O=C(Nc1n[nH]c(=S)s1)N[C@@H](Cc1ccccc1)C(=O)NCc1ccc(C(F)(F)F)cc1` [Example 52, α-[[[(4,5-Dihydro-5-thioxo-1,3,4-thiadiazol-2-yl)amino]carbonyl]-amino]-N-[(4-trifluoromethylphenyl)methyl]-(S)-benzenepropanamide] came in with a Ki of 750 nM.
The same measure for `O=C(Nc1n[nH]c(=S)s1)N[C@@H](Cc1ccccc1)C(=O)NCc1ccc([N+](=O)[O-])cc1` [Example 53, α-[[[(4,5-Dihydro-5-thioxo-1,3,4-thiadiazol-2-yl)amino]carbonyl]amino]-N-[(4-nitrophenyl)methyl]-(S)-benzenepropanamide]: 1310 nM.
The same measure for `CC(C)(C)c1ccc(CNC(=O)[C@H](Cc2ccccc2)NC(=O)Nc2n[nH]c(=S)s2)cc1` [Example 54, α-[[[(4,5-Dihydro-5-thioxo-1,3,4-thiadiazol-2-yl)amino]-carbonyl]amino]-N-[[4-(1,1-dimethylethyl)phenyl]methyl]-(S)-benzenepropanamide]: 1740 nM; for `O=C(Nc1n[nH]c(=S)s1)N[C@@H](Cc1ccccc1)C(=O)N1CCN(C(c2ccccc2)c2ccccc2)CC1` [Example 55, (S)-1-[2-[[[(4,5-Dihydro-5-thioxo-1,3,4-thiadiazol-2-yl)amino]carbonyl]amino]-1-oxo-3-phenylpropyl]-4-(benzhydryl)piperazine]: 4250 nM.
Turning to `O=C(Nc1n[nH]c(=S)s1)N[C@@H](Cc1ccccc1)C(=O)N1CCNCC1` [Example 56, (S)-1-[2-[[[(4,5-Dihydro-5-thioxo-1,3,4-thiadiazol-2-yl)amino]carbonyl]amino]-1-oxo-3-phenylpropyl]piperazine trifluoroacetate], the inhibitory constant (Ki) came out at 5270 nM.
Turning to `O=C(Nc1n[nH]c(=S)s1)N[C@@H](Cc1ccccc1)C(=O)NCc1nc2ccccc2[nH]1` [Example 57, N-(1H-Benzimidazol-2-ylmethyl)-α-[[[(4,5-dihydro-5-thioxo-1,3,4-thiadiazol-2-yl)amino]carbonyl]amino]-(S)-benzenepropanamide], the affinity, expressed as Ki, was 640 nM.
For `O=C(Nc1n[nH]c(=S)s1)N[C@@H](Cc1ccccc1)C(=O)NCc1cccc2ccccc12` [Example 58, α-[[[(4,5-Dihydro-5-thioxo-1,3,4-thiadiazol-2-yl)amino]carbonyl]amino)-N-(1-naphthylmethyl)-(S)-benzenepropanamide], affinity was put at a Ki of 800 nM.
With `COC(=O)[C@H](Cc1ccc(N)cc1)NC(=O)Nc1n[nH]c(=S)s1` [Example 59, N-[[(4,5-Dihydro-5-thioxo-1,3,4-thiadiazol-2-yl)amino]carbonyl]-L-(4-aminophenyl)alanine methyl ester] the figure was 2950 nM.
